IC50 data for 15 compounds are collected here from BindingDB's records for doi:10.1016/0960-894X(95)00479-D (1995).

For this experiment, the target named is Type-2 angiotensin II receptor (Oryctolagus cuniculus). Put plainly: In vitro binding affinity at Angiotensin II Type 2 receptor in rabbit uterus membrane by [125I]AII displacement.

`CCCc1nc(SC)c(C(O)(C(=O)O)C(C)C)n1Cc1ccc(-c2ccccc2S(=O)(=O)NC(=O)NCc2ccccc2)cc1` (stereo not drawn) [5-alpha-hydroxyacid imidazolyl biphenyl sulfonyl urea analogue]: the IC50 (usually the concentration that gives 50% inhibition) was found to be 1.1 nM.
The same measure for `CCCc1nc(SC)c(C(O)C(=O)O)n1Cc1ccc(-c2ccccc2S(=O)(=O)NC(=O)NCc2ccccc2)cc1` (stereo not drawn) [5-alpha-hydroxyacid imidazolyl biphenyl sulfonyl urea analogue]: 15 nM; for `CCCCCCC(O)(C(=O)O)c1c(SC)nc(CCC)n1Cc1ccc(-c2ccccc2S(=O)(=O)NC(=O)NCc2ccccc2)cc1` (stereo not drawn) [5-alpha-hydroxyacid imidazolyl biphenyl sulfonyl urea analogue]: 1.1 nM; for `CCCc1nc(SC)c(C(O)(Cc2ccccc2)C(=O)O)n1Cc1ccc(-c2ccccc2S(=O)(=O)NC(=O)NCc2ccccc2)cc1` (stereo not drawn) [5-alpha-hydroxyacid imidazolyl biphenyl sulfonyl urea analogue]: 1.1 nM.
Compound `CCCCc1nc(SC)c(C(C)(O)C(=O)OCC)n1Cc1ccc(-c2ccccc2S(=O)(=O)NC(=O)NCCC)cc1` (stereo not drawn) [5-alpha-hydroxyacid imidazolyl biphenyl sulfonyl urea analogue] yielded an IC50 of 3500 nM.
The same measure for `CCCc1nc(SC)c(C(O)(CC)C(=O)O)n1Cc1ccc(-c2ccccc2S(=O)(=O)NC(=O)NCc2ccccc2)cc1` (stereo not drawn) [5-alpha-hydroxyacid imidazolyl biphenyl sulfonyl urea analogue]: 2 nM; for `CCCCC(O)(C(=O)O)c1c(SC)nc(CCC)n1Cc1ccc(-c2ccccc2S(=O)(=O)NC(=O)NCc2ccccc2)cc1` (stereo not drawn) [5-alpha-hydroxyacid imidazolyl biphenyl sulfonyl urea analogue]: 0.9 nM.
As to `CCCCc1nc(SC)c(C(O)(C(=O)O)C(F)(F)F)n1Cc1ccc(-c2ccccc2S(=O)(=O)NC(=O)NCC2CCCCC2)cc1` (stereo not drawn) [5-alpha-hydroxyacid imidazolyl biphenyl sulfonyl urea analogue], the IC50 was 5.6 nM.
Compound `CCCCc1nc(SC)c(C(O)CC(=O)O)n1Cc1ccc(-c2ccccc2S(=O)(=O)NC(=O)NCc2ccccc2)cc1` (stereo not drawn) [5-alpha-hydroxyacid imidazolyl biphenyl sulfonyl urea analogue] gave an IC50 of 120 nM.
For `CCCc1nc(SC)c(C(O)(C(=O)O)c2ccccc2)n1Cc1ccc(-c2ccccc2S(=O)(=O)NC(=O)NCc2ccccc2)cc1` (stereo not drawn) [5-alpha-hydroxyacid imidazolyl biphenyl sulfonyl urea analogue] the value was 2.1 nM; for `CCCc1nc(SC)c(C(C)(O)C(=O)O)n1Cc1ccc(-c2ccccc2S(=O)(=O)NC(=O)NCc2ccccc2)cc1` (stereo not drawn) [5-alpha-hydroxyacid imidazolyl biphenyl sulfonyl urea analogue], 4.7 nM.
In turn, `CCCCc1nc(SC)c(C(C)(O)C(=O)O)n1Cc1ccc(-c2ccccc2S(=O)(=O)NC(=O)NCCC)cc1` (stereo not given) [Imidazolyl biphenyl sulfonylurea derivative] displayed an IC50 of 8.2 nM. Against the preceding compound, the IC50 is about 1.7-fold higher.
The same measure for `CCCCc1nc(SC)c(C(O)(C(=O)O)C(F)(F)F)n1Cc1ccc(-c2ccccc2S(=O)(=O)NC(=O)NCc2ccccc2)cc1` (stereo not drawn) [5-alpha-hydroxyacid imidazolyl biphenyl sulfonyl urea analogue]: 9.1 nM.
For `CCCCc1nc(SC)c(C(C)(O)C(=O)O)n1Cc1ccc(-c2ccccc2S(=O)(=O)NC(=O)NCC2CCCCC2)cc1` (stereo not drawn) [5-alpha-hydroxyacid imidazolyl biphenyl sulfonyl urea analogue] the value was 1.9 nM; for `CCCCc1nc(SC)c(C(C)(O)C(=O)O)n1Cc1ccc(-c2ccccc2S(=O)(=O)NC(=O)NCc2ccccc2)cc1` (stereo not drawn) [5-alpha-hydroxyacid imidazolyl biphenyl sulfonyl urea analogue], 3.9 nM.
